Here are results for one compound from article PMC12688703, “NirA is a Cyanide‐Tolerant Nitrite Reductase Which Protects Pseudomonas aeruginosa From Self‐Poisoning” (Environmental Microbiology Reports, 2025).

The experiment concerns the target T1, CysI (Pseudomonas aeruginosa, UniProt Q9I2Q7).
T1 construct: full orf with N-terminal hexahistidine tag (pSKcysI-N), E. coli BL21 (DE3) suf++ with pCDF-cysG; IMAC and SEC
T1 sequence (Q9I2Q7 1-552): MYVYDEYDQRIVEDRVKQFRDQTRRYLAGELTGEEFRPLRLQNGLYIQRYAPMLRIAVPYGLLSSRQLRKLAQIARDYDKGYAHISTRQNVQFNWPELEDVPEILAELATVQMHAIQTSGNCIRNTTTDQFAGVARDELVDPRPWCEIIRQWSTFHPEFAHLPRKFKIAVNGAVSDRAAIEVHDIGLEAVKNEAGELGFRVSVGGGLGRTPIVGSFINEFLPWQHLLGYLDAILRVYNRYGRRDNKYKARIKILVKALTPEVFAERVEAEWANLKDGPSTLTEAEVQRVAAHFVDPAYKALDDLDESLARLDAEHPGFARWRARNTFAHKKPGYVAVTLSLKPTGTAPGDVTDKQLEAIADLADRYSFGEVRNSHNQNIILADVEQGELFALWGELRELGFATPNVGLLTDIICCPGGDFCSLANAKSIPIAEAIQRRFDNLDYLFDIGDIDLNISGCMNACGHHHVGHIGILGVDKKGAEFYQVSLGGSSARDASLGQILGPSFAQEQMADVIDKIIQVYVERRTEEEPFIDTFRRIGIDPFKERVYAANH
The experiment is described as follows: methyl viologen oxidation at […] nm. The settings on record: anaerobic; methyl viologen as electron donor. The format is biochemical.

The structures appear in SMILES notation.

In the case of `O=S(O)O` [hydrogen sulphite], the “methyl viologen oxidation at 605 nm” value is “Potassium nitrite and hydrogen sulphite were used as electron acceptors for NirA and CysI”.
